Results: paper PMC12299890 (Pharmaceuticals, 2025)
Entries after “also recorded” stand apart in the source; their conditions may differ.

Assays:
[1] = cited from earlier work
[2] = Pharmacokinetics of MI in Wistar rat model after oral administration (Antonowski and co-workers); assay type: in vivo; conditions: rat serum; MI data of ref 30 vs SCI of this study
Experimental: Antonowski and co-workers examined the PK of MI in Wistar rat models.
Bioavailability studies in animal models are a critical step in evaluating how much of a substance is absorbed and becomes available in the body. A rat model is excellent to maximize the relevance of SCI to human health. Antonowski and co-workers used a rat model for the PK analysis of MI. In this study, a dose of 20 mg/kg MI was orally administrated to rats and afterwards, the serum concentration of MI was measured. […] Then, the concentration of MI began to decrease immediately. […] Studies should be extended to include intraperitoneal injection or direct injection into blood vessels to determine the bioactivity of these INSs.

[3] = design: method as in PMID 16250252; conditions: male Sprague-Dawley rats; cited from earlier work

Row | AUC of MI compared with SCI [2] | SMILES | Side effects of MI administration ([1]; oral MI) | Time of highest MI serum concentration (Cmax) after oral administration ([1]; serum, oral 20 mg/kg MI) | MI level 24 h after administration ([1]; serum, oral MI) | Relative bioavailability of oral administration compared to intraperitoneal injection [3]
1 | lower than for SCI | O[C@H]1[C@H](O)[C@@H](O)[C@H](O)[C@@H](O)[C@H]1O [MI, myo-inositol] | no serious side effects | first hour | still higher than before the administration; also recorded: still higher than before the supplementation | –
2 | – | O=C(O)[C@H]1O[C@@H](Oc2cc3oc(-c4ccc(O)cc4)cc(=O)c3c(O)c2O)[C@H](O)[C@@H](O)[C@@H]1O [scutellarin] | – | – | – | very low
